Laboratory results: PubChem BioAssay (NCI)
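Cultured in 96-well plates, cells were exposed to test compound for 48 hours across five concentrations. GI50 = concentration required for 50% inhibition of growth. Definition used: TGI = concentration required for complete inhibition of growth.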

Key:
Assay in all cases: inhibition of tumour cell growth, NCI panel, 48 h
COLO 205 colon = test system: COLO 205 colon
HCC-2998 colon = test system: HCC-2998 colon
LOX IMVI melanoma = test system: LOX IMVI melanoma
MDA-MB-435 = test system: MDA-MB-435
NCI-H460 lung = test system: NCI-H460 lung
OVCAR-4 ovarian = test system: OVCAR-4 ovarian
RPMI-8226 leukemia = test system: RPMI-8226 leukemia
SK-MEL-5 melanoma = test system: SK-MEL-5 melanoma
T-47D breast = test system: T-47D breast
U251 CNS = test system: U251 CNS

Row | Compound | GI50 (COLO 205 colon) [µM] | TGI (COLO 205 colon) [µM] | GI50 (HCC-2998 colon) [µM] | TGI (HCC-2998 colon) [µM] | GI50 (LOX IMVI melanoma) [µM] | TGI (LOX IMVI melanoma) [µM] | GI50 (MDA-MB-435) [µM] | TGI (MDA-MB-435) [µM] | GI50 (NCI-H460 lung) [µM] | TGI (NCI-H460 lung) [µM] | GI50 (OVCAR-4 ovarian) [µM] | TGI (OVCAR-4 ovarian) [µM] | GI50 (RPMI-8226 leukemia) [µM] | TGI (RPMI-8226 leukemia) [µM] | GI50 (SK-MEL-5 melanoma) [µM] | TGI (SK-MEL-5 melanoma) [µM] | GI50 (T-47D breast) [µM] | TGI (T-47D breast) [µM] | GI50 (U251 CNS) [µM] | TGI (U251 CNS) [µM]
1 | C=C1CCC2C3(C)COC(c4c(OC)cccc4OC)OC3CCC2(C)C1C/C=C1/C(=O)OCC1O (stereo not given) | 2.23 | 4.95 | 4.18 | 11.2 | 1.63 | 3.25 | 2.88 | 10.8 | 4.71 | 19.5 | 2.42 | 6.73 | 2.01 | 5.67 | 2.83 | 8.57 | 5.43 | 26.9 | 1.91 | 4.36
2 | CC(=O)c1ccc(Nc2nc(Nc3ccc(F)cc3)nc(Nc3ccc(F)cc3)n2)cc1 | 5.61 | 43.7 | 9.95 | > 100 | 18.2 | > 100 | 3.24 | > 100 | 8.65 | > 100 | 10.9 | 41.3 | 94.9 | > 100 | 7.07 | 35.8 | 4.77 | 65.2 | 11.7 | 30.1
3 | N#Cc1ccsc1NC(=O)COC(=O)c1cccc(S(=O)(=O)N2CCc3ccccc32)c1 | 27.5 | > 100 | 39.2 | > 100 | 7.69 | > 100 | 41.4 | > 100 | 18.2 | > 100 | 64.7 | > 100 | 17.4 | > 100 | 21.1 | > 100 | 37.5 | > 100 | 11.2 | > 100
4 | O=C1C=CC(=Nc2ccccc2)c2ccccc21 |  | 20.3 |  | 23.1 |  | 16.9 |  | 3.42 |  | 13.8 |  | 27.4 |  | 38.3 |  | 2.6 |  | 47.9 |  | 20.5
5 | O=C1C(Nc2ccc(Br)cc2)=C(I)C(=O)c2ncccc21 | 1.19 | 3.49 | 3.22 | 10.4 | 0.668 | 1.41 | 0.911 | 1.72 | 1.42 | 5.01 | 0.601 | 1.24 | 0.836 | 2.12 | 0.803 | 1.51 | 0.954 | 2.24 | 1.32 | 3.98
6 | C[N+](C)(CCCCCC[N+](C)(C)CCCN1C(=O)c2cc3ccccc3cc2C1=O)CCCN1C(=O)c2cc3ccccc3cc2C1=O | > 37.5 | > 37.5 | > 37.5 | > 37.5 | > 37.5 | > 37.5 | > 37.5 | > 37.5 | > 37.5 | > 37.5 | > 37.5 | > 37.5 | > 37.5 | > 37.5 | > 37.5 | > 37.5 | > 37.5 | > 37.5 | > 37.5 | > 37.5
7 | Nc1ccccc1NC(=O)c1ccc(CN2CCC/C(=C\c3ccccn3)C2=O)cc1 | 1.15 | 3.9 | 1.86 | 20.2 | 0.696 | 3.07 | 0.357 | 1.77 | 1.65 | > 100 | 2.66 | > 100 | 0.686 | 5.66 | 1.46 | 3.79 | 0.806 | 9.59 | 1.83 | > 100
8 | CCCC[n+]1c(/C=C\c2c(OC)cc(OC)cc2OC)ccc2ccccc21 | 0.332 | 1.19 | 0.946 | 7.83 | 0.827 | 2.58 | 0.393 | 1.87 | 0.574 | 2.83 | 1.68 | 13.6 | 0.279 | 2.73 | 0.299 | 1.29 | 0.205 | 2.06 | 0.353 | 3.66
9 | COC(=O)c1ccc2c(c1)C(=O)c1c-2n(C)c(=O)c2cc(OC)c(OC)cc12 | > 50 | > 50 | > 50 | > 50 | > 50 | > 50 | > 50 | > 50 | > 50 | > 50 | > 50 | > 50 | > 50 | > 50 | > 50 | > 50 | > 50 | > 50 | 19.8 | > 50
10 | CC[C@@H](C(=O)[C@H](C)[C@H](O)[C@@H](C)[C@H]1O[C@H]([C@@H](CC)C(=O)O)CC[C@H]1C)C1O[C@]2(C=C[C@@H](O)[C@]3(CC[C@@](C)([C@H]4CC[C@](O)(CC)[C@H](C)O4)O3)O2)[C@H](C)C[C@@H]1C (stereo not given in full) | 0.203 | 4.68 | 0.178 | 11.9 | 0.706 | 6.56 | 1.08 | 2.56 | 0.4 | 10.3 | 0.821 | 44.8 | 0.171 | 3.07 | 0.102 | 0.274 | 0.125 | 16.7 | 0.113 | 11.5
11 | CN(C)CCC=C1c2ccccc2C(C)(C)c2ccccc21 | 3.82 | 14.3 | 4.25 | 15 | 9.46 | 22 | 4.56 | 19.5 | 9.23 | 21.3 | 12.5 | 26.6 | 2 | 5.93 | 1.9 | 5.09 | 11.5 | 27.4 | 12.2 | 26.1
12 | O=[N+]([O-])c1ccc(Sc2nc(Cl)nc(NC3CCCC3)n2)cc1 | > 10 | > 10 | > 10 | > 10 | > 10 | > 10 | > 10 | > 10 | > 10 | > 10 | > 10 | > 10 | > 10 | > 10 | 5.32 | > 10 | > 10 | > 10 | > 10 | > 10
